{"source": "ChEMBL document CHEMBL5465560", "about": "“Selectivity Literature for EUbOPEN Chemogenomic Library” (2024)", "key": {"[1]": {"molecular_target": "Non-receptor tyrosine-protein kinase TYK2 (Homo sapiens, UniProt P29597)", "sequence (P29597 whole entry)": "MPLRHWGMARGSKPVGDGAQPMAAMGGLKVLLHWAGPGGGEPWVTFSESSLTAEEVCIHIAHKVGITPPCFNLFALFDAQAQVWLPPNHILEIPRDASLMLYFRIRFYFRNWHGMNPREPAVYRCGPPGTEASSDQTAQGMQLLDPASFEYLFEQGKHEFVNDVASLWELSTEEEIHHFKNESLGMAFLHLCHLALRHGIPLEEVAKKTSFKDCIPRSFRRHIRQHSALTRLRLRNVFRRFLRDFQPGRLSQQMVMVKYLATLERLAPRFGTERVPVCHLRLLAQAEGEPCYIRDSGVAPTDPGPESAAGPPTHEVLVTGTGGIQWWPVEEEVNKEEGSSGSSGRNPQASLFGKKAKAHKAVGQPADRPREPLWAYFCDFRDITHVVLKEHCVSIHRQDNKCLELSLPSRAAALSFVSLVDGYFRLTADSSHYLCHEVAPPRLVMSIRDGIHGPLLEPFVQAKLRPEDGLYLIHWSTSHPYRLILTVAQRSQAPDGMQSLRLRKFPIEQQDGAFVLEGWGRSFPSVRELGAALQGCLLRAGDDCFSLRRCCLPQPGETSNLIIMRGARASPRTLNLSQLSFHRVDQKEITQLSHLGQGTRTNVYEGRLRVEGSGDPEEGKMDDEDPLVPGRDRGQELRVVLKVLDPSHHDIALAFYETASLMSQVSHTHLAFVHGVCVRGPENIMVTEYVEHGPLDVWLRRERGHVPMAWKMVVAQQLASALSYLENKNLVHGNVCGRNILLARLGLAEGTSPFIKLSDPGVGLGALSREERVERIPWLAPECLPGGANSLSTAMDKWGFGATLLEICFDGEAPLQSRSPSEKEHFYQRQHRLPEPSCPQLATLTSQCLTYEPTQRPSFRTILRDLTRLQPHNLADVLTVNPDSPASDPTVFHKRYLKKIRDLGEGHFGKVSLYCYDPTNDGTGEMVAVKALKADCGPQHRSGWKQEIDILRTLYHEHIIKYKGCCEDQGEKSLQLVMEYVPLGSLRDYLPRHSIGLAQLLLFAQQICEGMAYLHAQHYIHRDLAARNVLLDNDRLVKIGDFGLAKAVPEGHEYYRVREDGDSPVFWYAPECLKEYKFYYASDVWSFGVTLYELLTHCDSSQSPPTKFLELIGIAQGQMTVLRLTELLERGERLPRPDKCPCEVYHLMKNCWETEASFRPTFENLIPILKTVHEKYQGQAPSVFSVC", "test": "Selectivity interaction (KinomeScan (DiscoverX)) EUB0001049a TYK2", "details": "at 1 µM"}, "[2]": {"molecular_target": "DNA mismatch repair protein Msh6 (Homo sapiens) (UniProt P52701)", "sequence (P52701 whole entry, the tested form may be a part)": "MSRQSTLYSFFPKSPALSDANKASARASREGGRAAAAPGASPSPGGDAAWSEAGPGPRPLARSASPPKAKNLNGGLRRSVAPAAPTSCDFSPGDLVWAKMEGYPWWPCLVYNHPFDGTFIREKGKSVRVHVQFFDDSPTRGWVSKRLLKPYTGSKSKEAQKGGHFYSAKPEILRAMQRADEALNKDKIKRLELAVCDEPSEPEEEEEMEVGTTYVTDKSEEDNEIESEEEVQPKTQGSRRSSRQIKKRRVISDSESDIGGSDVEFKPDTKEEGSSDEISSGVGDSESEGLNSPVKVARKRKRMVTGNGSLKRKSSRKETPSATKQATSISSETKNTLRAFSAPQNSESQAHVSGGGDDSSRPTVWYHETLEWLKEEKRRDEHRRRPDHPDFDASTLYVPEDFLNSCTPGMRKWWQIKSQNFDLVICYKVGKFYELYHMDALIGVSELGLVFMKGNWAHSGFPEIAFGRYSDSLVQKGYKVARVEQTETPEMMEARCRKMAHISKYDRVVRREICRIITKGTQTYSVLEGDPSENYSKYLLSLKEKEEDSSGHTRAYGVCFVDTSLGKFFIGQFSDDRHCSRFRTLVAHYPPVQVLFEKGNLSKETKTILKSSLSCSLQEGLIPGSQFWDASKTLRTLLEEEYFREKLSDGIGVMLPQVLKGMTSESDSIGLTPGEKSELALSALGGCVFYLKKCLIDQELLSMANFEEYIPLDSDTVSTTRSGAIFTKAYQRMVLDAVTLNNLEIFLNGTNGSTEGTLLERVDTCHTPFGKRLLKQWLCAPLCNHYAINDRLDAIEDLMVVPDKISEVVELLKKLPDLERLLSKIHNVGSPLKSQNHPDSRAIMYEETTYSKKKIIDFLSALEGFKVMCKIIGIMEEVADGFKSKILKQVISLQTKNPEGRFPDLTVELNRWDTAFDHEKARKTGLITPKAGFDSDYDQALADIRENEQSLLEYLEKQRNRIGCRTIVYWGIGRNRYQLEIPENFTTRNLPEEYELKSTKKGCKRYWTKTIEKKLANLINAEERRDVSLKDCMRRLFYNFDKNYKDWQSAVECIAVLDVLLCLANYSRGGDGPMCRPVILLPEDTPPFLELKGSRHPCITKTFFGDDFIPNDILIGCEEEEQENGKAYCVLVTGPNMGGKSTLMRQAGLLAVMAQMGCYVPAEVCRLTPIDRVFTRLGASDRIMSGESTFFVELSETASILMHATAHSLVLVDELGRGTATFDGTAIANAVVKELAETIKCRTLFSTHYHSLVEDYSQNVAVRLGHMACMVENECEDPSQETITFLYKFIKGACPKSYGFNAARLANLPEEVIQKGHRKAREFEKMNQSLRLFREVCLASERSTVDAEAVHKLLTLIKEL", "test": "Selectivity interaction (PWWP, WD40, and Tudor domain panel (DSLS measurements, literature)) EUB0000270b MSH6"}, "[3]": {"molecular_target": "T1, Phosphatidylinositol 5-phosphate 4-kinase type-2 gamma (Homo sapiens) (UniProt Q8TBX8)", "T1 sequence (whole entry)": "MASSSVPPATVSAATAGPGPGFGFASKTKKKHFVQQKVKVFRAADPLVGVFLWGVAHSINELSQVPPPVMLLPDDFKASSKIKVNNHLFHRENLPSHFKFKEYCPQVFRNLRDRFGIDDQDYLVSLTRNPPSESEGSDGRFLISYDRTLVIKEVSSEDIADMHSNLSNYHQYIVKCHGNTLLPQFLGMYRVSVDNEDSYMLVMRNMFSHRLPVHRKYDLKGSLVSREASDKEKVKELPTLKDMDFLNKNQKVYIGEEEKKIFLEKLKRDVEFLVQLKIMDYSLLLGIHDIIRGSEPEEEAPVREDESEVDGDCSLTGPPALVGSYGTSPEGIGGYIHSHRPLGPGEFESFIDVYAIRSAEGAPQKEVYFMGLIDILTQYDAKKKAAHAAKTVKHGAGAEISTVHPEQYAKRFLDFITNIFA", "test": "Selectivity interaction (ActivX KiNativ screen (kinase selectivity in THP-1 cell lysates)) EUB0000639a PIP4K2C", "format": "subcellular", "details": "lysate, at 0.04 µM"}, "[4]": {"molecular_target": "T2, Protein kinase C epsilon type (Homo sapiens) (UniProt Q02156)", "T2 sequence (whole entry)": "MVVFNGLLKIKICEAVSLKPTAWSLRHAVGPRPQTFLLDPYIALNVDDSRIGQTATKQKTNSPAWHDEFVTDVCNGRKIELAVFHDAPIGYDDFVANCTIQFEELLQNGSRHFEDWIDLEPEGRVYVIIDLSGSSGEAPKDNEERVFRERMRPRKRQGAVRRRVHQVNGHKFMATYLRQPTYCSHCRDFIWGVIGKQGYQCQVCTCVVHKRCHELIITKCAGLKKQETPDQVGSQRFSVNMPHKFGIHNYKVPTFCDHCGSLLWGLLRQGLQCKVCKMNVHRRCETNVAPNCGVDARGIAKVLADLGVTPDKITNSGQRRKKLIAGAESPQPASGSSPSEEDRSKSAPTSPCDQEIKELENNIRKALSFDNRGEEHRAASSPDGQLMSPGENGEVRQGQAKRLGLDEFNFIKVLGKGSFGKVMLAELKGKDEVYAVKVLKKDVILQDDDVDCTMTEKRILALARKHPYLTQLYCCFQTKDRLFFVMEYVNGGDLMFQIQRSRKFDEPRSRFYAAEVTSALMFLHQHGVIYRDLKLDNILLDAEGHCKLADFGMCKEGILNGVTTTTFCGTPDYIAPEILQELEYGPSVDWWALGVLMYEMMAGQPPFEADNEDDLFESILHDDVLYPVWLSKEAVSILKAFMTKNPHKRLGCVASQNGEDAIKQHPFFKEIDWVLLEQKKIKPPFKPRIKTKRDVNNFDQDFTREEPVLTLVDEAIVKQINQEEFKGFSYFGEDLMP", "test": "Selectivity interaction (Kinase panel (Invitrogen)) EUB0000639a PRKCE", "details": "at 200 nM"}, "[5]": {"molecular_target": "Receptor tyrosine-protein kinase erbB-2 (Homo sapiens, UniProt P04626)", "sequence (P04626 whole entry)": "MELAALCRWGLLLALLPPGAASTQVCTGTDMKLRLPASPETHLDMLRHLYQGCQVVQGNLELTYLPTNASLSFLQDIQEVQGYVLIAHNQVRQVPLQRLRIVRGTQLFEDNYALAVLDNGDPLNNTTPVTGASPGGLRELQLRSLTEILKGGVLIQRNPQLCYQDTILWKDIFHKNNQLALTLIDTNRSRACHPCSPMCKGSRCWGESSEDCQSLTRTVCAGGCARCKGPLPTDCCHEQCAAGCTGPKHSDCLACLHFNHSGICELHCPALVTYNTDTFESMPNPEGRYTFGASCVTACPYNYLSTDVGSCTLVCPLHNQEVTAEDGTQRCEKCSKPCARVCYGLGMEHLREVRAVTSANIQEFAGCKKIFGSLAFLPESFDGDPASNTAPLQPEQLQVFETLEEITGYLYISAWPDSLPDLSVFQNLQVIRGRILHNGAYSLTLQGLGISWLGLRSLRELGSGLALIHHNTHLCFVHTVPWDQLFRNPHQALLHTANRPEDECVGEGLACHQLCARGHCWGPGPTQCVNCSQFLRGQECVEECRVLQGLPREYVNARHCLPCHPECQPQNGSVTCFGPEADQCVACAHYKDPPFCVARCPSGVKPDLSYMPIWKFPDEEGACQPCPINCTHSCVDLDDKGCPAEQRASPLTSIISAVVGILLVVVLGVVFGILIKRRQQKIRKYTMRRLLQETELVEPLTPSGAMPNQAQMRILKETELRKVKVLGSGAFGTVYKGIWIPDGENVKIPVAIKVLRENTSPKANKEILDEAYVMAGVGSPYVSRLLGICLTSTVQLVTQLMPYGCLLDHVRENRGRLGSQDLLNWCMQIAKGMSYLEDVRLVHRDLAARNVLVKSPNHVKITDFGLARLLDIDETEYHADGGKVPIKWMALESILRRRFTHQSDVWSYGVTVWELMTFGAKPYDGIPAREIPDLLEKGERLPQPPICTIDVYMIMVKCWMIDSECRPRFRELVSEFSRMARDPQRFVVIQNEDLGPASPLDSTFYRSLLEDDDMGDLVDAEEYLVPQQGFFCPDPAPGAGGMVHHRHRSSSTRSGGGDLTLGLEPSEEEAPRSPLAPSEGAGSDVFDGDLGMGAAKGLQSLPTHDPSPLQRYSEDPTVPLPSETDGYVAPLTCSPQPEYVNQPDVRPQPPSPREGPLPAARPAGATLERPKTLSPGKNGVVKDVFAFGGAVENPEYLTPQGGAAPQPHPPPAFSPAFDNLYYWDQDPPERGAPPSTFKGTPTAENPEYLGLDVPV", "test": "Selectivity interaction (Ambit KINOMEscan and KiNATiv profiling in Jurkat cells) EUB0000090b ERBB2", "format": "cell-based", "details": "at 1 µM"}, "[6]": {"molecular_target": "Tyrosine-protein kinase Yes (Homo sapiens) (UniProt P07947)", "sequence (P07947 2-543 limits assumed)": "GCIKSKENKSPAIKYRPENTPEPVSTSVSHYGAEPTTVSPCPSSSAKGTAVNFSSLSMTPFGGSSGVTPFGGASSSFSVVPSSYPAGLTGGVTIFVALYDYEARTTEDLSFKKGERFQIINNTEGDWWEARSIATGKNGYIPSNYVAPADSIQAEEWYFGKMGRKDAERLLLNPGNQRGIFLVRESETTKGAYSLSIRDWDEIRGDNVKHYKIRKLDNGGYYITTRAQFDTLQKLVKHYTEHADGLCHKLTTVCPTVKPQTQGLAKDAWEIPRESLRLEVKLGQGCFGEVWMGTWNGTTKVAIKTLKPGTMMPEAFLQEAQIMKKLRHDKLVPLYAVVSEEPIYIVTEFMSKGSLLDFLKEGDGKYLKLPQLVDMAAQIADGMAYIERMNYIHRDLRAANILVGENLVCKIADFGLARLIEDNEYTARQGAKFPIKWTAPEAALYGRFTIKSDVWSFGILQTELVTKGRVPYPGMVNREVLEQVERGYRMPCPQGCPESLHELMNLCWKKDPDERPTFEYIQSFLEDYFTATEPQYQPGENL", "test": "Selectivity interaction (KinomeScan (DiscoverX)) EUB0000045b YES1"}, "[7]": {"molecular_target": "Tyrosine-protein kinase BTK (Homo sapiens, UniProt Q06187)", "sequence (Q06187 whole entry)": "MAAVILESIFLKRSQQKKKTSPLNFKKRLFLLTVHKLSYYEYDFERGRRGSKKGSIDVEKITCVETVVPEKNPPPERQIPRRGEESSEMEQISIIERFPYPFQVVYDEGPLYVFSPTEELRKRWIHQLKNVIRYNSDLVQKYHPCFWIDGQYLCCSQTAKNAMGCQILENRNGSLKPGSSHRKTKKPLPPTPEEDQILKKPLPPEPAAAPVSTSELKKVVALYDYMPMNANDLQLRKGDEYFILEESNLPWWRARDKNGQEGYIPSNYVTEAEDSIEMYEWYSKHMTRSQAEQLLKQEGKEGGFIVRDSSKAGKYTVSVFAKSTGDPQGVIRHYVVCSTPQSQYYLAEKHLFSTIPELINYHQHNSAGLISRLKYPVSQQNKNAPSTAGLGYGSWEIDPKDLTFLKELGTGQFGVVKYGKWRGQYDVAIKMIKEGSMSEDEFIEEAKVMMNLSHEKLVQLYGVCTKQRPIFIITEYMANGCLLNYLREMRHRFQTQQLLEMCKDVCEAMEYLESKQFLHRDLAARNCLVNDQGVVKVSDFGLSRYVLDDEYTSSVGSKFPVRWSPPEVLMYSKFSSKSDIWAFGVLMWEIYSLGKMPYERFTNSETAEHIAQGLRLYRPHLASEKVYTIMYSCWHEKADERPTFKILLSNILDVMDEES", "test": "Selectivity interaction (KinomeScan (DiscoverX)) EUB0001619a BTK", "details": "at 1 µM"}, "[8]": {"molecular_target": "T3, Serine/threonine-protein kinase Nek5 (Homo sapiens) (UniProt Q6P3R8)", "T3 sequence (whole entry)": "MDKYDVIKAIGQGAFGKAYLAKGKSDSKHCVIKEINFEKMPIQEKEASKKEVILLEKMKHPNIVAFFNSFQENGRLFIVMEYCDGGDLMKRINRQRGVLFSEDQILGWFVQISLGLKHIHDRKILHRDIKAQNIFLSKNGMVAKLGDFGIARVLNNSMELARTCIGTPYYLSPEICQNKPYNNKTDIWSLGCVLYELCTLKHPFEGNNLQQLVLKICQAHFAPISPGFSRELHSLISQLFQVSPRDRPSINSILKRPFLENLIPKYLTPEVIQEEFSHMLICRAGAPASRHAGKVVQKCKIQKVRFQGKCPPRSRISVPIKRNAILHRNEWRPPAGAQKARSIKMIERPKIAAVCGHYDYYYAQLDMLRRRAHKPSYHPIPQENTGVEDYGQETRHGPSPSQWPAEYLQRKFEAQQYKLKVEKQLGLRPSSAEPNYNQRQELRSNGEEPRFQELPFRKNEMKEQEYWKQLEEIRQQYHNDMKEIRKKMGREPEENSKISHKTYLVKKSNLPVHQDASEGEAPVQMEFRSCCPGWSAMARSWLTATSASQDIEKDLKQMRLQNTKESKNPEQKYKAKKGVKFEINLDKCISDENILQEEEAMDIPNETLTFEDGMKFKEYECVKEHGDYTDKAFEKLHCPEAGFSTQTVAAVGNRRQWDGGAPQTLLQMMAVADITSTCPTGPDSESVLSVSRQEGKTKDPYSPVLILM", "test": "Selectivity interaction (KinomeScan (DiscoverX)) EUB0000607a NEK5", "details": "at 10 µM"}, "[9]": {"molecular_target": "T4, Serine/threonine-protein kinase 3 (Homo sapiens) (UniProt Q13188)", "T4 sequence (whole entry)": "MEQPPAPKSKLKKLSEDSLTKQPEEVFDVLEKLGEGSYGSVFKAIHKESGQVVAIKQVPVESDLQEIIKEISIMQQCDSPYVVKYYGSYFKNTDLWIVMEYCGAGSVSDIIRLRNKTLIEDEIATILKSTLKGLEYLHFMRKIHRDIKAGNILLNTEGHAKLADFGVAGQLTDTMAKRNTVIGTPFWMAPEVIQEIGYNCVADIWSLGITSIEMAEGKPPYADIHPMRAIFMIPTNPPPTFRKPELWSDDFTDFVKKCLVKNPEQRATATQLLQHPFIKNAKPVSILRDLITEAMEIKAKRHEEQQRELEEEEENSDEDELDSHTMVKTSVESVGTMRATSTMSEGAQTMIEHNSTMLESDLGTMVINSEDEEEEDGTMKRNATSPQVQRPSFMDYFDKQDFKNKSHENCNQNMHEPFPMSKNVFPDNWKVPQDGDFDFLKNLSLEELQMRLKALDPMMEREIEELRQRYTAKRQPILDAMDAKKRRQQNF", "test": "Selectivity interaction (ProQinase) EUB0000171b STK3"}}}
{"smiles": "COc1cc(Nc2nc(C)cc(-c3cnn4nc(OC)ccc34)n2)cc(C(F)(F)F)c1", "values": [{"measurement": "% of control", "setting": "[1]", "value": 90, "unit": "%"}]}
{"smiles": "Cc1cc(CN)cc(C)c1-c1ncn(C)c1-c1cncn1C", "values": [{"measurement": "dTagg", "setting": "[2]", "value": -0.2, "unit": "K"}]}
{"smiles": "CC[C@@H]1[C@H](F)C(=O)N[C@@H]1COc1nccc2cc(C(N)=O)c(OC)cc12", "note": "[ZIMLOVISERTIB]", "values": [{"measurement": "% of inhibition", "setting": "[3]", "value": 6.2, "unit": "%"}, {"measurement": "% of inhibition", "setting": "[4]", "value": -12.5, "unit": "%"}]}
{"smiles": "CN(C)C/C=C/C(=O)Nc1ccc(C(=O)N2CCCC(Nc3ncc(Cl)c(-c4c[nH]c5ccccc45)n3)C2)cc1", "note": "(stereo unspecified)", "values": [{"measurement": "% of control", "setting": "[5]", "value": 96, "unit": "%"}]}
{"smiles": "C=CC(=O)Nc1cc(-n2c(=O)ccc3cnc4ccc(-c5ccc(NS(C)(=O)=O)cc5)cc4c32)ccc1C", "values": [{"measurement": "% of control", "setting": "[6]; at 1 µM", "value": 74, "unit": "%"}, {"measurement": "% of control", "setting": "[6]; at 10 µM", "value": 100, "unit": "%"}]}
{"smiles": "N#Cc1cccc(-c2c[nH]c3ncnc(N4CCOCC4)c23)c1", "values": [{"measurement": "% of control", "setting": "[7]", "value": 100, "unit": "%"}]}
{"smiles": "CNC(=O)Nc1ccc(-c2nc(N3CC4CCC(C3)O4)c3cnn(C4CCC5(CC4)OCCO5)c3n2)cc1", "values": [{"measurement": "% of control", "setting": "[8]", "value": 81, "unit": "%"}]}
{"smiles": "C=CC(=O)Nc1cccc(C(=O)Nc2ccc(Nc3cc(-c4[nH]c(SC)nc4C)ccn3)cc2)c1", "values": [{"measurement": "% of control", "setting": "[9]; at 1 µM", "value": 83, "unit": "%"}, {"measurement": "% of control", "setting": "[9]; at 5 µM", "value": 69, "unit": "%"}]}
